In US8143259B2, “Cold menthol receptor antagonists” (Janssen Pharmaceutica, NV, priority 2008, dated 2012):
pIC50: −log10 of the molar value. “And” between values parts separate entries of the source, which are not always exact repeats. Equal values may be shown once.

Assays:
[1] = target: T1, canine TRPM8 (Canis lupus familiaris, UniProt Q1A7N1); assay: In Vitro Canine TRPM8 Functional Assay (Ca2+ fluorescence, icilin activation); assay type: cell-based; conditions: for inhibition at 0.5 µM: HEK293, 0.5 μM compound; for pIC50: HEK293 cells stably expressing canine TRPM8, icilin activation, Ca2+ fluorescence; for % Inh @ 0.5 μM: 0.5 μM compound; for inhibition at 0.2 µM: HEK293, 0.2 μM compound
T1 construct: expressed in transfected cells
T1 sequence (Q1A7N1 1-1104): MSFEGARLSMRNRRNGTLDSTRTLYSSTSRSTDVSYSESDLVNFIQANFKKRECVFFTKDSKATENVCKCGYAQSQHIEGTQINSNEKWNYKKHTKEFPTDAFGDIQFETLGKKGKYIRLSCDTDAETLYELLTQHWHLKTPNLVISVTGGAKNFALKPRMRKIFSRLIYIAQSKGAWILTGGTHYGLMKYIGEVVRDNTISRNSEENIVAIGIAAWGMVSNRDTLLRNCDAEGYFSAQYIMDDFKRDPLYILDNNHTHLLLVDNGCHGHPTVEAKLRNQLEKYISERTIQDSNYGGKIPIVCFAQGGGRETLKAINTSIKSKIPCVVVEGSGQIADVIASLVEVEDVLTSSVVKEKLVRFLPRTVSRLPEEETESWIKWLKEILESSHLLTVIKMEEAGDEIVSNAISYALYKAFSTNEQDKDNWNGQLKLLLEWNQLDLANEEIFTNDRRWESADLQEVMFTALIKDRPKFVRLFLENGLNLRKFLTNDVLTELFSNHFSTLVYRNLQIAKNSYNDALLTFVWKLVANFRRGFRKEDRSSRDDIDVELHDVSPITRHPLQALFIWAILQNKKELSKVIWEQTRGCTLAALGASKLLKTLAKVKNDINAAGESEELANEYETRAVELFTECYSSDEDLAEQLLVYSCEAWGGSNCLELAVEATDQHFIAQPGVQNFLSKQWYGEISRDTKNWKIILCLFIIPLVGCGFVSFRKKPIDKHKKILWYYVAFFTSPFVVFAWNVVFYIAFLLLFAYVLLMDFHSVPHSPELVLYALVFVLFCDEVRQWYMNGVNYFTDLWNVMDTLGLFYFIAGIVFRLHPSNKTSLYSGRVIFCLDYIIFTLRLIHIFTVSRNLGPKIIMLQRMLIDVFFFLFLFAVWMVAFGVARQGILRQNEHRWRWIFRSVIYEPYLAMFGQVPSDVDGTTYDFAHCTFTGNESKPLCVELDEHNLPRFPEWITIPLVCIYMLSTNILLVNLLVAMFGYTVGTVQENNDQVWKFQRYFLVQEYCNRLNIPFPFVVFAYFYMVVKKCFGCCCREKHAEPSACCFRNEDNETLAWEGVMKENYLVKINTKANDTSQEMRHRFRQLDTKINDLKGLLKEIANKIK
How it was run: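 HEK293 cells stably expressing canine TRPM8, loaded with Calcium 3 dye; compounds added 5 min before icilin at a concentration giving ~80% maximal response. Peak icilin-evoked Ca2+ fluorescence, basal-subtracted and normalised to maximal response, fitted by sigmoidal nonlinear regression; quadruplicate wells.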

[2] = tested on: icilin-induced “wet-dog” shakes; assay: Reversal of Icilin-Induced Behaviors in Rats; assay type: in vivo; conditions: percent inhibition (reversal) of wet-dog shakes, rat, 30 mg/kg P.O., 20′ post-icilin
Description: (§1) Similar shaking or jumping behavior was also evident in mice, rabbits, cats, dogs and monkeys. In humans, icilin produced a sensation of coolness on contact with mucous membranes, cold prickling when 0.1 mg was dropped on the tongue and coldness in the mouth, pharynx and chest lasting 30-60 minutes when 5-10 mg was ingested orally (Wei E T, Seid D A, J Pharm Pharmacol. 1983, 35, 110). The inhibition or reversal of icilin-induced shaking behaviors in rodents provides evidence for the utility of TRPM8 antagonists of the formula (I) in treating or preventing a disease, syndrome, disorder or condition in a subject in which the disease, syndrome, disorder or condition is affected by the modulation of TRPM8 receptors.
Male Sprague Dawley rats (225-450 g, Charles River Labs, n=4-6/treatment) were used to evaluate the ability of selected compounds of the formula (I) to reverse icilin-induced “wet-dog” shakes. Icilin was administered in PEG-400 or 10% solutol/H2O, at 1.0 or 3.0 mg/kg, i.p. and spontaneous “wet-dog” shakes (WDS) were counted 10-20 minutes post-icilin. […] Results are presented as a percent inhibition of shakes, which was calculated as [1−(test compound WDS count/vehicle WDS count)]×100.

[3] = tested on: icilin-induced “wet-dog” shakes; assay: Inhibition of Icilin-Induced “Wet-Dog” Shakes in Rats; assay type: in vivo; conditions: percent inhibition of wet-dog shakes; rat; 30 mg/kg p.o., 10% solutol, 2 h pre-icilin
Description: as §1
Male Sprague Dawley rats ([…], Charles River Labs, n=6-9/treatment) were used to evaluate the ability of selected compounds of the formula (I) to block icilin-induced “wet-dog” shakes (WDS). […] Icilin was administered in PEG-400 or 10% solutol/H2O, at 1.0 or 3.0 mg/kg, i.p. and spontaneous “wet-dog” shakes were counted 10-20 minutes post-icilin. Results are presented as a percent inhibition of shakes, which was calculated as [1−(test compound WDS count/vehicle WDS count)]×100.

Compound	pIC50 [1]	inhibition at 0.2 µM ([1]; canine TRPM8 HEK293, icilin) [%]	further results
O=C(C(Nc1ccccc1F)c1ccc(C(F)(F)F)cc1)N1CCCC1c1ccccc1F (single isomer, unassigned) [Cpd 149]	7.35 and 7.13	83	inhibition at 0.5 µM ([1]; canine TRPM8 HEK293, icilin): 101%; % Inh ([2]; 30 mg/kg): 61% ± 15%
O=C(C(Nc1ccccc1F)c1ccc(C(F)(F)F)cc1)N1CCCC1c1ccccc1F (single isomer, unassigned) [Cpd 151]	8.14 and 8.30	–	% Inh @ 0.2 μM ([1]; 0.2 μM compound, canine TRPM8 HEK293, icilin, 0.2 µM): 103%; % Inh @ 0.5 μM ([1]; canine TRPM8 HEK293, icilin): 100.72%; % Inh ([2]; 30 mg/kg): 99% ± 1%; % Inh [3]: 100%
O=C(C(Nc1ccccc1F)c1ccc(C(F)(F)F)cc1)N1CCCC1c1cccc(F)c1 (stereo not shown) [Cpd 134]	7.85 and 8.06	–	% Inh @ 0.5 μM ([1]; canine TRPM8 HEK293, icilin): 98%; % Inh [2]: 75% ± 11%
O=C(C(Nc1ccccc1F)c1ccc(C(F)(F)F)cc1)N1CCC[C@H]1c1ccccc1F (stereo partly drawn) [Cpd 150, 2-(2-Fluoro-phenylamino)-1-[(2S)-2-(2-fluoro-phenyl)-pyrrolidin-1-yl]-2-(4-trifluoromethyl-phenyl)-ethanone]	7.92 and 8.40	89	inhibition at 0.5 µM ([1]; canine TRPM8 HEK293, icilin): 100%; % Inh [2]: 63% ± 15%
O=C(C(Nc1ccccc1F)c1ccc(C(F)(F)F)cc1)N1CCCC1c1cncc(Br)c1 (stereo not shown) [Cpd 344]	7.36	98	–
COC(=O)c1ccc(C2CCCN2C(=O)C(Nc2ccccc2F)c2ccc3c(c2)CCO3)cc1 (stereo not shown) [Cpd 351]	7.04	83	–
COC(=O)c1ccc(C2CCCN2C(=O)C(Nc2ccccc2F)c2ccc(-c3ccccn3)cc2)cc1 (stereo not shown) [Cpd 352]	6.94	88	–
O=C(C(Nc1ccccc1F)c1ccc(-c2ccc(-c3nnn[nH]3)cc2)cc1)N1CCC[C@H]1c1ccccc1F (stereo partly drawn) [Cpd 354, 2-(2-Fluoro-phenylamino)-1-[(2S)-2-(2-fluoro-phenyl)-pyrrolidin-1-yl]-2-[4′-(1H-tetrazol-5-yl)-biphenyl-4-yl]-ethanone]	–	53	–
O=C(C(c1ccc(C(F)(F)F)cc1)N1CCCc2ccccc21)N1Cc2ccccc2C1 (stereo not shown) [Cpd 363]	6.87	72	–
O=C(C(Nc1c(F)cccc1F)c1ccc(Cl)cc1)N1CCCc2ccccc21 (stereo not shown) [Cpd 366]	7.34	98	–
O=C(C(Nc1ccccc1F)c1cc2ccccc2s1)N1Cc2cccnc2C1 (stereo not shown) [Cpd 370]	6.92	–	–
O=C(C(Nc1ccccc1F)c1cnc2ccccc2c1)N1Cc2ccccc2C1 (stereo not shown) [Cpd 371]	7.00	–	–

The remaining compounds from weak to strong by pIC50 [1], led by results:

pIC50 [1]	inhibition at 0.2 µM ([1]; canine TRPM8 HEK293, icilin) [%]	Compound	further results
7.37	–	O=C(C(Nc1ccccc1F)c1ccc(C(F)(F)F)cc1)N1CCCC1c1ccccc1 (single isomer, unassigned) [Cpd 129]	% Inh @ 0.5 μM ([1]; canine TRPM8 HEK293, icilin): 101%; % Inh ([2]; 30 mg/kg): 50% ± 21%
7.38	99	O=C(O)c1ccc(-c2ccc(C(Nc3ccccc3F)C(=O)N3CCCC3c3ccccc3Cl)cc2)cc1 (stereo not shown) [Cpd 350]	–
7.44	91	O=C(C(Nc1ccccc1F)c1ccc(Cl)cc1)N1CCCc2ccccc21 (stereo not shown) [Cpd 364]	–
7.52	94	O=C(C(Nc1ccccc1F)c1ccc(Br)cc1)N1CCCc2ccccc21 (stereo not shown) [Cpd 365]	–
7.77	–	O=C(C(Nc1ccccc1F)c1ccc(C(F)(F)F)cc1)N1CCCC1c1ccccc1Cl (single isomer, unassigned) [Cpd 155]	inhibition at 0.5 µM ([1]; canine TRPM8 HEK293, icilin): 99%; % Inh [2]: 79% ± 13%
8.10	96	O=C(C(Nc1c(F)cccc1F)c1cc2ccccc2s1)N1CCCC1c1ccccc1F (stereo not shown) [Cpd 361]	–
8.15	100	O=C(C(Nc1ccccc1F)c1ccc(N2CCOCC2)nc1)N1CCCC1c1ccccc1F (stereo not shown) [Cpd 359]	–
8.22	–	O=C(C(Nc1ccccc1F)c1cnc2ccccc2c1)N1CCCC1c1ccccc1Cl (stereo not shown) [Cpd 373]	–
8.30	–	O=C(C(Nc1ccccc1F)c1ccc(Cl)cc1)N1CCCC1c1ccccc1F (single isomer, unassigned) [Cpd 158]	% Inh @ 0.5 μM ([1]; canine TRPM8 HEK293, icilin): 98%; % Inh [2]: 86% ± 7%
8.34	–	O=C(C(Nc1ccccc1F)c1ccc(C(F)(F)F)cc1)N1CCCC1c1ccccc1 (single isomer, unassigned) [Cpd 128]	inhibition at 0.5 µM ([1]; canine TRPM8 HEK293, icilin): 100%; % Inh ([2]; 30 mg/kg): 56% ± 19%
